Laboratory results reported in ChEMBL document CHEMBL1128165, “Quinuclidine-based NK1 antagonists, the role of the benzhydryl” (Bioorg Med Chem Lett, 1995).

Assays:
Substance-P receptor [1] = molecular target: Substance-P receptor (Homo sapiens, UniProt P25103); test: Binding affinity towards wild type human Wild-type tachykinin receptor 1 expressed in Chinese hamster ovary cells; assay type: cell-based
Substance-P receptor [2] = molecular target: Substance-P receptor (Homo sapiens, UniProt P25103, H197A); test: Binding affinity towards human mutant NK-1 receptor in which His-197 has been replaced by alanine (H197A)
Chain of Substance-P receptor (Homo sapiens, UniProt P25103, H197A) (P25103 whole entry H197A): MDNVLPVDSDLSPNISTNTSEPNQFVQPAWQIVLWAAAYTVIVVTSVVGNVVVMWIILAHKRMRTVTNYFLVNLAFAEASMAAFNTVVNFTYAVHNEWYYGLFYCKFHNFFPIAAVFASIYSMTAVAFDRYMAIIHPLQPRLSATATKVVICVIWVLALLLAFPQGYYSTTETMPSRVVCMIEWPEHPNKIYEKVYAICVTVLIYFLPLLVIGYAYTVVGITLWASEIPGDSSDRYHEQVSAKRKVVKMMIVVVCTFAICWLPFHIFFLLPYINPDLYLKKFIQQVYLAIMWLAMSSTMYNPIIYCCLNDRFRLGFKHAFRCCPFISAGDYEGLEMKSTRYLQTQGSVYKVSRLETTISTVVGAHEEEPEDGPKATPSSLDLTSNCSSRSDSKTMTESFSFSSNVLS

Chain of Substance-P receptor (Homo sapiens, UniProt P25103) (P25103 whole entry): as the sequence (P25103 whole entry H197A) above, with A197H counted along it

Row | Structure (SMILES) | IC50 (Substance-P receptor [1]) | IC50 (Substance-P receptor [2])
1 | FC(F)(F)c1cc(CO[C@H]2C3CCN(CC3)[C@H]2Cc2ccccc2)cc(C(F)(F)F)c1 | 0.197 µM | 0.5 µM
2 | Cc1cc(C)cc(CO[C@H]2C3CCN(CC3)[C@H]2Cc2ccccc2)c1 | 0.292 µM | 0.845 µM
3 | Cc1cc(C)cc(CO[C@H]2C3CCN(CC3)[C@H]2C(c2ccccc2)c2ccccc2)c1 [L-706125] | 0.002 µM | 0.196 µM
4 | FC(F)(F)c1cc(CO[C@H]2C3CCN(CC3)[C@H]2C(c2ccccc2)c2ccccc2)cc(C(F)(F)F)c1 [L-709210] | 0.002 µM | 0.33 µM
